Source: US11339128B2 (Firmenich Incorporated, priority 2014, dated 2022)

Molecular target: T1, T1R2/T1R3 taste receptor (Homo sapiens, UniProt Q7RTX0+Q8TE23)
T1 sequence (Q8TE23 20-839): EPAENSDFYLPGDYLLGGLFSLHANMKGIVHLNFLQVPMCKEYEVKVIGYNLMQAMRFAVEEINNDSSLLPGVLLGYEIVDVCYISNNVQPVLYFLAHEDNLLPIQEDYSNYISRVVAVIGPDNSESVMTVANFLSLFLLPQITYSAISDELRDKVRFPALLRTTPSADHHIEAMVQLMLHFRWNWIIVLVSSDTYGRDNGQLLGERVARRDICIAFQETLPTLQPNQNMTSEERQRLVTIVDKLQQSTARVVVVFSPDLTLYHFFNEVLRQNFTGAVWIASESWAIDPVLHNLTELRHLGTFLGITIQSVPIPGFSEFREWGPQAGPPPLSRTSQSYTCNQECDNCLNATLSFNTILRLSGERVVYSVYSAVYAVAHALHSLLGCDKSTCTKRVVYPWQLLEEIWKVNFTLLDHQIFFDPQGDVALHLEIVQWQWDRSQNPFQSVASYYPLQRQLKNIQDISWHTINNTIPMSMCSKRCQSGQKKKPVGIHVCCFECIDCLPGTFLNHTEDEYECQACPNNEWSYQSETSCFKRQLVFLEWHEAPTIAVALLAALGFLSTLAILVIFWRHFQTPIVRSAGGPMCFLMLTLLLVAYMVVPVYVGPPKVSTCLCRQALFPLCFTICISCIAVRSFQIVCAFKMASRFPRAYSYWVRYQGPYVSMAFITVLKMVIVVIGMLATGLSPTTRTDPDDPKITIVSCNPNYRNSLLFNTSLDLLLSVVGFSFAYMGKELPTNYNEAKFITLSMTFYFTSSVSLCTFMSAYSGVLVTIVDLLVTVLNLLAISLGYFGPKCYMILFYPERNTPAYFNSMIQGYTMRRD
T1 sequence (Q7RTX0 21-852): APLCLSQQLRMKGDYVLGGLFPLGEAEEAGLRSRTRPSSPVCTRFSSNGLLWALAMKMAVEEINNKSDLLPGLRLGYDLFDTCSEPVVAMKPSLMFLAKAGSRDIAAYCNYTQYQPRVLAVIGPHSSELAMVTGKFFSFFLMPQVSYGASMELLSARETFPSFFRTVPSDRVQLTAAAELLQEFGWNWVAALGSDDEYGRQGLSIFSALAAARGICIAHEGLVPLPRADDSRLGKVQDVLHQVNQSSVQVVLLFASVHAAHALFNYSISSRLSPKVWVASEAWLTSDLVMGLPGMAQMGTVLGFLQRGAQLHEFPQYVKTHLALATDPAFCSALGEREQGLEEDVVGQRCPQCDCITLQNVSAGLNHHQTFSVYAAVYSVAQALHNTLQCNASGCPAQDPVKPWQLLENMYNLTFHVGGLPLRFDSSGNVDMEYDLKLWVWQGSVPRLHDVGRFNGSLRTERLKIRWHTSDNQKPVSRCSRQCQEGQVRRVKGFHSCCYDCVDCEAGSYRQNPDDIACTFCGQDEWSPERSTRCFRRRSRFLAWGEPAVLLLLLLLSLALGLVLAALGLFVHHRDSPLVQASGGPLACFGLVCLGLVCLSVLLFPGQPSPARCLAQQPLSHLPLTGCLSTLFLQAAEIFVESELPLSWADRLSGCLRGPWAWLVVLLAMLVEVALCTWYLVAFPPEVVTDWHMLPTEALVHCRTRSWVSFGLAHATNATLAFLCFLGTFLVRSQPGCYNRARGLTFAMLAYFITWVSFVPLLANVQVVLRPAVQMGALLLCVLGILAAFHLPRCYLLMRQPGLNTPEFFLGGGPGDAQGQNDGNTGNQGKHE
Experiment: Receptor-based assay: sweetener EC50 enhancement ratio with and without test compound
Assay type: cell-based
Conditions: for Sucrose Enhancement EC50 Ratio: sweetener sucrose; for Sucralose Enhancement EC50 Ratio: sweetener sucralose; for Fructose Enhancement EC50 Ratio: sweetener fructose
Protocol: Potencies (EC50 values) for the sweeteners sucrose, sucralose, and fructose were measured against the T1R2/T1R3 taste receptor. EC50 was determined using the sweetener alone and in the presence of 1 μM, 3 μM, 10 μM, or 50 μM of test compound. EC50 ratios were calculated by the ratio of potency with and without the test compound. An “A” value indicates an enhancement ratio of greater than 1 and less than 10. A “B” value indicates an enhancement ratio from 10 to 20. A “C” value indicates an enhancement ratio greater than 20.

Row | Sucralose Enhancement EC50 Ratio (10 μM test compound) | Sucrose Enhancement EC50 Ratio (10 μM test compound) | Sucralose Enhancement EC50 Ratio (3 μM test compound) | SMILES | Sucrose Enhancement EC50 Ratio (1 μM test compound) | Sucrose Enhancement EC50 Ratio (3 μM test compound) | Fructose Enhancement EC50 Ratio (50 μM test compound) | Fructose Enhancement EC50 Ratio (10 μM test compound)
1 | B (an enhancement ratio from 10 to 20) | B (an enhancement ratio from 10 to 20) | – | CCSCC(=O)N[C@H]1CC[C@H](Oc2cccc3nc(C)c(C(=O)O)c(N)c23)CC1 [Compound 318] | A (an enhancement ratio of greater than 1 and less than 10) | A (an enhancement ratio of greater than 1 and less than 10) | A (an enhancement ratio of greater than 1 and less than 10) | –
2 | – | – | B (an enhancement ratio from 10 to 20) | Cc1nc2cccc(O[C@H]3CC[C@H](NC(=O)COCC(C)(C)C)CC3)c2c(N)c1C(=O)O [Compound 301, 4-Amino-2-methyl-5-((trans-4-(2-(neopentyloxy)acetamido)cyclohexyl)oxy) quinoline-3-carboxylic acid] | B (an enhancement ratio from 10 to 20) | B (an enhancement ratio from 10 to 20) | – | –
3 | C (an enhancement ratio greater than 20) | C (an enhancement ratio greater than 20) | B (an enhancement ratio from 10 to 20) | Cc1cc(N[C@H]2CC[C@H](Oc3cccc4nc(C)c(C(=O)O)c(N)c34)CC2)nc(N)n1 [Compound 712] | A (an enhancement ratio of greater than 1 and less than 10) | B (an enhancement ratio from 10 to 20) | A (an enhancement ratio of greater than 1 and less than 10) | A (an enhancement ratio of greater than 1 and less than 10)
4 | – | C (an enhancement ratio greater than 20) | – | CCC(CC)COCC(=O)N[C@H]1CC[C@H](Oc2cccc3nc(C)c(C(=O)O)c(N)c23)CC1 [Compound 331] | A (an enhancement ratio of greater than 1 and less than 10) | A (an enhancement ratio of greater than 1 and less than 10) | – | –
5 | B (an enhancement ratio from 10 to 20) | B (an enhancement ratio from 10 to 20) | B (an enhancement ratio from 10 to 20) | Cc1nc2cccc(O[C@H]3CC[C@H](Nc4ncc(F)cn4)CC3)c2c(N)c1C(=O)O [Compound 704] | A (an enhancement ratio of greater than 1 and less than 10) | A (an enhancement ratio of greater than 1 and less than 10) | A (an enhancement ratio of greater than 1 and less than 10) | A (an enhancement ratio of greater than 1 and less than 10)
6 | – | – | C (an enhancement ratio greater than 20) | CCCCOCC(=O)N[C@H]1CC[C@H](Oc2cccc3nc(C)c(C(=O)O)c(N)c23)CC1 [Compound 335] | B (an enhancement ratio from 10 to 20) | C (an enhancement ratio greater than 20) | – | –
7 | – | B (an enhancement ratio from 10 to 20) | – | CCc1nc2cccc(OC3CCC(C)(C)CC3)c2c(N)c1C(=O)O [Compound 203] | A (an enhancement ratio of greater than 1 and less than 10) | A (an enhancement ratio of greater than 1 and less than 10) | – | –

Continued, compound first:

Row | SMILES | Sucralose Enhancement EC50 Ratio (10 μM test compound) | Sucrose Enhancement EC50 Ratio (10 μM test compound) | Sucralose Enhancement EC50 Ratio (3 μM test compound) | Sucrose Enhancement EC50 Ratio (1 μM test compound) | Sucrose Enhancement EC50 Ratio (3 μM test compound) | Fructose Enhancement EC50 Ratio (50 μM test compound) | Fructose Enhancement EC50 Ratio (10 μM test compound)
8 | Cc1nc2cccc(O[C@H]3CC[C@H](NC(=O)COCC4CCOCC4)CC3)c2c(N)c1C(=O)O [Compound 339] | – | – | – | A (an enhancement ratio of greater than 1 and less than 10) | B (an enhancement ratio from 10 to 20) | – | –
9 | CCOCC(=O)N[C@H]1CC[C@H](Oc2cccc3nc(CC)c(C(=O)O)c(N)c23)CC1 [Compound 322] | – | – | – | A (an enhancement ratio of greater than 1 and less than 10) | A (an enhancement ratio of greater than 1 and less than 10) | – | –
10 | Cc1cnc(N[C@H]2CC[C@H](Oc3cccc4nc(C)c(C(=O)O)c(N)c34)CC2)nc1 [Compound 705] | B (an enhancement ratio from 10 to 20) | B (an enhancement ratio from 10 to 20) | A (an enhancement ratio of greater than 1 and less than 10) | A (an enhancement ratio of greater than 1 and less than 10) | B (an enhancement ratio from 10 to 20) | – | A (an enhancement ratio of greater than 1 and less than 10)
11 | Cc1nc2cccc(O[C@H]3CC[C@H](NC(=O)CCCC(C)C)CC3)c2c(N)c1C(=O)O [Compound 319] | – | A (an enhancement ratio of greater than 1 and less than 10) | – | A (an enhancement ratio of greater than 1 and less than 10) | A (an enhancement ratio of greater than 1 and less than 10) | – | –
12 | CCc1nc2cccc(O[C@H]3CC[C@H](CO)CC3)c2c(N)c1C(=O)O [Compound 206] | – | A (an enhancement ratio of greater than 1 and less than 10) | – | A (an enhancement ratio of greater than 1 and less than 10) | A (an enhancement ratio of greater than 1 and less than 10) | – | –
13 | Cc1nc2cccc(O[C@H]3CC[C@H](N)CC3)c2c(N)c1C(=O)O.Cl [Compound 302, 4-Amino-5-((trans-4-aminocyclohexyl)oxy)-2-methylquinoline-3-carboxylic acid (HCl salt)] | – | – | – | A (an enhancement ratio of greater than 1 and less than 10) | A (an enhancement ratio of greater than 1 and less than 10) | – | –
14 | Cc1nccc(N[C@H]2CC[C@H](Oc3cccc4nc(C)c(C(=O)O)c(N)c34)CC2)n1 [Compound 714] | A (an enhancement ratio of greater than 1 and less than 10) | A (an enhancement ratio of greater than 1 and less than 10) | A (an enhancement ratio of greater than 1 and less than 10) | A (an enhancement ratio of greater than 1 and less than 10) | A (an enhancement ratio of greater than 1 and less than 10) | A (an enhancement ratio of greater than 1 and less than 10) | A (an enhancement ratio of greater than 1 and less than 10)
15 | Cc1nc2cccc(O[C@H]3CC[C@H](NC(=O)CN(C)C)CC3)c2c(N)c1C(=O)O [Compound 324] | – | – | A (an enhancement ratio of greater than 1 and less than 10) | A (an enhancement ratio of greater than 1 and less than 10) | A (an enhancement ratio of greater than 1 and less than 10) | – | –
16 | Cc1nc2cccc(O[C@H]3CC[C@@H](O)CC3)c2c(N)c1C(=O)O [Compound 108] | – | A (an enhancement ratio of greater than 1 and less than 10) | – | A (an enhancement ratio of greater than 1 and less than 10) | A (an enhancement ratio of greater than 1 and less than 10) | – | –
